# In patent US20150307543A1, “POLYMORPH” (ONCOLOGY RESEARCH INTERNATIONAL LIMITED, priority 2012, published 2015):
# What was measured:
# Type in all cases: physicochemical
# [1] = Dissolution analysis in ethanol (% transmission until complete dissolution); conditions: set amount in ethanol with stirring, until % transmission reached 100%, FIG. 6
# Description: In order to test the solubility of the polymorphs produced in examples 1 and 2 a set amount of the material was added to ethanol with stirring and the % transmission of the mixture thus monitored until the % transmission reached 100% (which indicated complete dissolution). The 3 materials tested were (1) compound I hydrate, (2) the polymorphic form of compound I of the invention and (3) the polymorphic form of compound I isolated from methanol. The results of this experiment were detailed in FIG. 6. […] In contrast the dissolution profile of the polymorphic form of the invention is much slower taking almost 8 times as long to reach full dissolution.
# [2] = Dynamic vapour sorption (DVS) at 25° C.; conditions: 0% to 95% RH; for total moisture uptake (percent change in mass based on dry mass): first cycle
# Description: A comparative study of the dynamic vapour sorption (DVS) of the 3 solid forms of compound one were carried out. The 3 materials tested were (1) compound I hydrate, (2) the polymorphic form of compound I of the invention and (3) the polymorphic form of compound I isolated from methanol. The samples were analysed on a DVS automated moisture sorption instrument at 25° C. with sample sizes of 25-52 mg for the analysis. The samples were initially dried for 300 minutes under a continuous flow of air to establish the dry mass. The samples were then exposed to the following typical partial pressure profile: 0% to 90% RH in 10% steps and then followed by a 5% step to 95%. The partial pressure was then decreased in a similar manner.
# Typical net percent change in mass (based on dry mass) versus time plots for the first cycle at 25° C. for the three samples are shown in FIGS. 7, 9 and 11. […] The line plotted on the left y-axis, indicates the percentage change in mass referenced to the dry mass (after initial drying stage), m0, as a function of time. The other line, plotted on the right y-axis, traces the requested % partial pressure of water vapour in the DVS as a function of time.
# The isotherm plots display the percent change in mass (referenced from the dry mass, m0) versus the requested relative humidity.
# For all the RH steps, the instrument was run in a dm/dt mode (mass variation over time variation). A fixed dm/dt value of 0.002% min-1 was selected. This criterion permits the DVS software to automatically determine when equilibrium has been reached and complete a relative humidity step. When the rate of change of mass falls below this threshold over a determined period of time, the humidity will proceed to the next programmed level. A maximum stage time of 360 minutes and a minimum stage time of 10 minutes were selected for this experiment.
# [3] = Bulk density and tap density; conditions: for Weight of 5.0 cm^3 of Solid: untapped; for Tapped density: after tapping 50 times; for Bulk density: calculated from weight of 5.0 cm^3 of solid; for Volume after tapped 50 times: starting volume 5.0 cm^3, tapped 50 times
# Description: A comparative study of the bulk density and the tapped density of the 3 solid forms of compound one were carried out. The 3 materials tested were (1) compound I hydrate, (2) the polymorphic form of compound I of the invention and (3) the polymorphic form of compound I isolated from methanol. The tests indicated the weight of material in 5.0 cm^3 of solid (g) to calculate the bulk density. This was then tapped 50 times and the tapped density calculated.
# [4] = listed as polymorphic form of the invention
smiles,measurement,setting,value
"CC1O[C@@H](OC2C(O)[C@H](O)C(CO)O[C@H]2O[C@H]2CC[C@@]3(C)C(=CC[C@H]4[C@@H]5C[C@@H]6O[C@]7(CC[C@@H](C)CO7)[C@@H](C)[C@@H]6[C@@]5(C)CC[C@@H]43)C2)C(O)C(O)[C@H]1O (stereo partly drawn) [Form 2, diosgenyl α-L-rhamnopyranosyl-(1->2)-β-D-glucopyranoside]","time to reach full dissolution, relative to the other forms",[1],~8 times as long
same,dissolution rate / dissolution profile (in words),[1]; [4],much slower
same,total moisture uptake (percent change in mass based on dry mass),[2]; [4],about 0.55%
same,percentage of water uptake (in words),[2]; [4],low
same,Weight of 5.0 cm^3 of Solid,[3]; listed as 2,1.489 g
same,Tapped density,[3]; listed as 2,0.41 g/mL
same,Bulk density,[3]; listed as 2,0.30 g/mL
same,Volume after tapped 50 times,[3]; listed as 2,3.6 cm^3
"CC1O[C@@H](OC2C(O)[C@H](O)C(CO)O[C@H]2O[C@H]2CC[C@@]3(C)C(=CC[C@H]4[C@@H]5C[C@@H]6O[C@]7(CC[C@@H](C)CO7)[C@@H](C)[C@@H]6[C@@]5(C)CC[C@@H]43)C2)C(O)C(O)[C@H]1O (stereo partly drawn) [Form 1, diosgenyl α-L-rhamnopyranosyl-(1->2)-β-D-glucopyranoside]",dissolution rate / dissolution profile (in words),[1]; listed as hydrate,fastest
same,total moisture uptake (percent change in mass based on dry mass),[2]; listed as anhydrate,about 5.2%
same,percentage of water uptake (in words),[2]; listed as hydrate,relatively high
same,Weight of 5.0 cm^3 of Solid,[3]; listed as 1,1.430 g
same,Tapped density,[3]; listed as 1,0.37 g/mL
same,Bulk density,[3]; listed as 1,0.29 g/mL
same,Volume after tapped 50 times,[3]; listed as 1,3.9 cm^3
"CC1O[C@@H](OC2C(O)[C@H](O)C(CO)O[C@H]2O[C@H]2CC[C@@]3(C)C(=CC[C@H]4[C@@H]5C[C@@H]6O[C@]7(CC[C@@H](C)CO7)[C@@H](C)[C@@H]6[C@@]5(C)CC[C@@H]43)C2)C(O)C(O)[C@H]1O (stereo partly drawn) [Form 3, diosgenyl α-L-rhamnopyranosyl-(1->2)-β-D-glucopyranoside]",dissolution rate / dissolution profile (in words),[1]; listed as polymorphic form isolated from methanol,very rapid
same,total moisture uptake (percent change in mass based on dry mass),[2]; listed as polymorph from methanol,about 2.5%
same,percentage of water uptake (in words),[2]; listed as polymorph obtained from methanol,relatively high
same,Weight of 5.0 cm^3 of Solid,[3]; listed as 3,0.847 g
same,Tapped density,[3]; listed as 3,0.26 g/mL
same,Bulk density,[3]; listed as 3,0.17 g/mL
same,Volume after tapped 50 times,[3]; listed as 3,3.2 cm^3
